In one experiment the target is T1, Jak2 (a.a. 828-1132) (Homo sapiens, UniProt O60674).
T1 construct: Jak2 (a.a. 828-1132); His tag (N); made in house; host or cells: insect cells (baculovirus)
The experiment is described as follows: In vitro JAK kinase assay (HTRF, phosphorylation of biotinylated peptide), JAK2. Type of experiment: biochemical. As to conditions: 1 mM ATP; Examples 12-91; read-out: JAK2 IC50 (nM) @ 1 mM ATP. How it is done:
(§1) Compounds herein were tested for inhibitory activity of JAK targets according to the following in vitro assay described in Park et al., Analytical Biochemistry 1999, 269, 94-104. The catalytic domains of human JAK1 (a.a. 837-1142), Jak2 (a.a. 828-1132) and Jak3 (a.a. 781-1124) with an N-terminal His tag were expressed using baculovirus in insect cells and purified. The catalytic activity of JAK1, JAK2 or JAK3 was assayed by measuring the phosphorylation of a biotinylated peptide. The phosphorylated peptide was detected by homogenous time resolved fluorescence (HTRF). IC50s of compounds were measured for each kinase in the 40 microL reactions that contain the enzyme, ATP and 500 nM peptide in 50 mM Tris (pH 7.8) buffer with 100 mM NaCl, 5 mM DTT, and 0.1 mg/mL (0.01%) BSA. The ATP concentration in the reactions was 90 μM for Jak1, 30 μM for Jak2 and 3 μM for Jak3 for Km conditions. For the 1 mM IC50 measurements, ATP concentration in the reactions was 1 mM. Reactions were carried out at room temperature for 1 hr and then stopped with 20 μL 45 mM EDTA, 300 nM SA-APC, 6 nM Eu-Py20 in assay buffer (Perkin Elmer, Boston, Mass.). Binding to the Europium labeled antibody took place for 40 minutes and HTRF signal was measured on a Fusion plate reader (Perkin Elmer, Boston, Mass.). See Tables 1, 2, 3, and 4 for data related to compounds of the invention.
In general terms: TR-FRET usually uses a lanthanide donor and a delayed reading to cut background.

Experiment [1] concerns the target T2, human JAK1 (a.a. 837-1142) (Homo sapiens, UniProt P23458).
T2 construct: The catalytic domains of human JAK1 (a.a. 837-1142); His tag (N); made in house; host or cells: insect cells (baculovirus)
The experiment is described as follows: In vitro JAK kinase assay (HTRF, phosphorylation of biotinylated peptide), JAK1. It counts as biochemical. Conditions: 1 mM ATP; Examples 12-91; read-out: JAK1 IC50 (nM) @ 1 mM ATP. The protocol: as §1

Structures can show the parent of a compound that is named as a salt.

By IC50 is commonly meant the concentration that gives 50% inhibition.

T1 sequence (O60674 828-1132): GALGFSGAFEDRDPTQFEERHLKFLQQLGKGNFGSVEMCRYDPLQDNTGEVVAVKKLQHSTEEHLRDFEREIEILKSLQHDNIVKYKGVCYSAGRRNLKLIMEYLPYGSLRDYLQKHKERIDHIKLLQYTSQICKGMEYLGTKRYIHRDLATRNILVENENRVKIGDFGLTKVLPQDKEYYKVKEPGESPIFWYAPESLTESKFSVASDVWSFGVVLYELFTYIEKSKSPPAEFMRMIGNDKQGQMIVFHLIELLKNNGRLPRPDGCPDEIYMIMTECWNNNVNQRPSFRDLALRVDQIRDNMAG
T2 sequence (P23458 849-1154): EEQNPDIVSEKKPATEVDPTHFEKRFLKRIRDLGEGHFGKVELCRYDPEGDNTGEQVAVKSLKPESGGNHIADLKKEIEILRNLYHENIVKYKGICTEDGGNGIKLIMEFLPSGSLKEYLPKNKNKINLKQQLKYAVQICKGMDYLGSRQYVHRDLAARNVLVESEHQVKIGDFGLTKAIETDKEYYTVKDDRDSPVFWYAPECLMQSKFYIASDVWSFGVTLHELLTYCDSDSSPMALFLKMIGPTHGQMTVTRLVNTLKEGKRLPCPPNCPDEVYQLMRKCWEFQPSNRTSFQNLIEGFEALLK

In the case of `N#CCC(CN1CCN(C(=O)c2ccc(C#N)cn2)CC1)n1cc(-c2ncnc3[nH]ccc23)cn1` (stereo not shown) [Example 20, 6-[(4-{3-cyano-2-[4-(7H-pyrrolo[2,3-d]pyrimidin-4-yl)-1H-pyrazol-1-yl]propyl}piperazin-1-yl)carbonyl]nicotinonitrile], the concentration for half-maximal inhibition (IC50) was above 100 nM at Jak2 (a.a. 828-1132) and 10 to 50 nM in experiment [1].

For `N#CCC(CN1CCN(C(=O)c2ccc(F)cn2)CC1)n1cc(-c2ncnc3[nH]ccc23)cn1` (stereo not shown) [Example 21, 4-{4-[(5-fluoropyridin-2-yl)carbonyl]piperazin-1-yl}-3-[4-(7H-pyrrolo[2,3-d]pyrimidin-4-yl)-1H-pyrazol-1-yl]butanenitrile trifluoroacetate Salt], the half-inhibitory concentration (IC50) at Jak2 (a.a. 828-1132) fell in the range of 50 to 100 nM; in experiment [1] it was 10 to 50 nM.

With `N#CCC(CN1CCN(S(=O)(=O)c2ccc3[nH]ncc3c2)CC1)n1cc(-c2ncnc3[nH]ccc23)cn1` (stereo not shown) [Example 22, 4-[4-(1H-indazol-5-ylsulfonyl)piperazin-1-yl]-3-[4-(7H-pyrrolo[2,3-d]pyrimidin-4-yl)-1H-pyrazol-1-yl]butanenitrile], the half-inhibitory concentration (IC50) (on Jak2 (a.a. 828-1132); in experiment [1]) was below 10 nM in each case.

`Cc1cc(F)ccc1NC(=O)N1CCN(CC(CC#N)n2cc(-c3ncnc4[nH]ccc34)cn2)CC1` (stereo not shown) [Example 23, 4-(2-(4-(7H-pyrrolo[2,3-d]pyrimidin-4-yl)-1H-pyrazol-1-yl)-3-cyanopropyl)-N-(4-fluoro-2-methylphenyl)piperazine-1-carboxamide]: the IC50 is above 100 nM on Jak2 (a.a. 828-1132) and 10 to 50 nM in experiment [1].

Turning to `N#CCC(CN1CCN(C(=O)c2ccc(Cl)cc2F)CC1)n1cc(-c2ncnc3[nH]ccc23)cn1` (stereo not shown) [Example 26, 3-(4-(7H-pyrrolo[2,3-d]pyrimidin-4-yl)-1H-pyrazol-1-yl)-4-(4-(4-chloro-2-fluorobenzoyl)piperazin-1-yl)butanenitrile], the IC50 (on Jak2 (a.a. 828-1132); in experiment [1]) was below 10 nM in each case.

Take `N#CCC(CN1CCN(C(=O)c2c(F)cc(Cl)cc2F)CC1)n1cc(-c2ncnc3[nH]ccc23)cn1` (stereo not shown) [Example 27, 3-(4-(7H-pyrrolo[2,3-d]pyrimidin-4-yl)-1H-pyrazol-1-yl)-4-(4-(4-chloro-2,6-difluorobenzoyl)piperazin-1-yl)butanenitrile]: the IC50 (at Jak2 (a.a. 828-1132); in experiment [1]) was below 10 nM throughout.

On to `Cc1ccc(C(=O)N2CCN(CC(CC#N)n3cc(-c4ncnc5[nH]ccc45)cn3)CC2)c(F)c1` (stereo not shown) [Example 28, 3-(4-(7H-pyrrolo[2,3-d]pyrimidin-4-yl)-1H-pyrazol-1-yl)-4-(4-(2-fluoro-4-methylbenzoyl)piperazin-1-yl)butanenitrile], for which the IC50 (on Jak2 (a.a. 828-1132); in experiment [1]) was below 10 nM throughout.

On to `N#CCC(CN1CCN(C(=O)c2c(F)cc(F)cc2F)CC1)n1cc(-c2ncnc3[nH]ccc23)cn1` (stereo not shown) [Example 29, 3-(4-(7H-pyrrolo[2,3-d]pyrimidin-4-yl)-1H-pyrazol-1-yl)-4-(4-(2,4,6-trifluorobenzoyl)piperazin-1-yl)butanenitrile], for which the half-maximal inhibitory concentration (IC50) (at Jak2 (a.a. 828-1132); in experiment [1]) was below 10 nM throughout.

Turning to `N#CCC(CN1CCN(C(=O)c2ccc(F)cc2F)CC1)n1cc(-c2ncnc3[nH]ccc23)cn1` (stereo not shown) [Example 30, 3-(4-(7H-pyrrolo[2,3-d]pyrimidin-4-yl)-1H-pyrazol-1-yl)-4-(4-(2,4-difluorobenzoyl)piperazin-1-yl)butanenitrile], the IC50 (at Jak2 (a.a. 828-1132); in experiment [1]) was below 10 nM each time.

For `N#CCC(CN1CCN(C(=O)c2ccc(O)cc2F)CC1)n1cc(-c2ncnc3[nH]ccc23)cn1` (stereo not shown) [Example 31, 3-(4-(7H-pyrrolo[2,3-d]pyrimidin-4-yl)-1H-pyrazol-1-yl)-4-(4-(2-fluoro-4-hydroxybenzoyl)piperazin-1-yl)butanenitrile trifluoroacetate salt], the concentration for half-maximal inhibition (IC50) on Jak2 (a.a. 828-1132) was 10 to 50 nM; in experiment [1] it was below 10 nM.

Turning to `N#CCC(CN1CCN(C(=O)c2cc(C(F)(F)F)ccc2F)CC1)n1cc(-c2ncnc3[nH]ccc23)cn1` (stereo not shown) [Example 32, 3-(4-(7H-pyrrolo[2,3-d]pyrimidin-4-yl)-1H-pyrazol-1-yl)-4-(4-(2-fluoro-5-(trifluoromethyl)benzoyl)piperazin-1-yl)butanenitrile], the concentration for half-maximal inhibition (IC50) (at Jak2 (a.a. 828-1132); in experiment [1]) was below 10 nM in each case.

Regarding `N#CCC(CN1CCN(C(=O)c2cccc(F)c2F)CC1)n1cc(-c2ncnc3[nH]ccc23)cn1` (stereo not shown) [Example 33, 3-(4-(7H-pyrrolo[2,3-d]pyrimidin-4-yl)-1H-pyrazol-1-yl)-4-(4-(2,3-difluorobenzoyl)piperazin-1-yl)butanenitrile], the half-maximal inhibitory concentration (IC50) (on Jak2 (a.a. 828-1132); in experiment [1]) was below 10 nM each time.

For the compound `COc1ccc(C(=O)N2CCN(CC(CC#N)n3cc(-c4ncnc5[nH]ccc45)cn3)CC2)c(F)c1F` (stereo not shown) [Example 34, 3-(4-(7H-pyrrolo[2,3-d]pyrimidin-4-yl)-1H-pyrazol-1-yl)-4-(4-(2,3-difluoro-4-methoxybenzoyl)piperazin-1-yl)butanenitrile], the IC50 was 10 to 50 nM on Jak2 (a.a. 828-1132) and below 10 nM in experiment [1].

In the case of `N#CCC(CN1CCN(C(=O)c2c(O)cccc2F)CC1)n1cc(-c2ncnc3[nH]ccc23)cn1` (stereo not shown) [Example 35, 3-(4-(7H-pyrrolo[2,3-d]pyrimidin-4-yl)-1H-pyrazol-1-yl)-4-(4-(2-fluoro-6-hydroxybenzoyl)piperazin-1-yl)butanenitrile], the half-inhibitory concentration (IC50) (at Jak2 (a.a. 828-1132); in experiment [1]) was below 10 nM each time.

Turning to `N#CCC(CN1CCN(C(=O)c2ccc(F)cc2)CC1)n1cc(-c2ncnc3[nH]ccc23)cn1` (stereo not shown) [Example 36, 3-(4-(7H-pyrrolo[2,3-d]pyrimidin-4-yl)-1H-pyrazol-1-yl)-4-(4-(4-fluorobenzoyl)piperazin-1-yl)butanenitrile], the figures for the half-inhibitory concentration (IC50) (on Jak2 (a.a. 828-1132); in experiment [1]) were 10 to 50 nM and below 10 nM, respectively.

For the compound `Cc1cc(C(=O)N2CCN(CC(CC#N)n3cc(-c4ncnc5[nH]ccc45)cn3)CC2)ccc1F` (stereo not shown) [Example 37, 3-(4-(7H-pyrrolo[2,3-d]pyrimidin-4-yl)-1H-pyrazol-1-yl)-4-(4-(4-fluoro-3-methylbenzoyl)piperazin-1-yl)butanenitrile], the IC50 was 10 to 50 nM at Jak2 (a.a. 828-1132) and below 10 nM in experiment [1].

Take `N#CCC(CN1CCN(C(=O)c2ccc(Cl)cn2)CC1)n1cc(-c2ncnc3[nH]ccc23)cn1` (stereo not shown) [Example 38, 3-(4-(7H-pyrrolo[2,3-d]pyrimidin-4-yl)-1H-pyrazol-1-yl)-4-(4-(5-chloropicolinoyl)piperazin-1-yl)butanenitrile]: the values for the IC50 (at Jak2 (a.a. 828-1132); in experiment [1]) were 10 to 50 nM and below 10 nM, respectively.

On to `N#CCC(CN1CCN(C(=O)c2ccc(F)cc2Cl)CC1)n1cc(-c2ncnc3[nH]ccc23)cn1` (stereo not shown) [Example 39, 3-(4-(7H-pyrrolo[2,3-d]pyrimidin-4-yl)-1H-pyrazol-1-yl)-4-(4-(2-chloro-4-fluorobenzoyl)piperazin-1-yl)butanenitrile], for which the half-inhibitory concentration (IC50) is 10 to 50 nM at Jak2 (a.a. 828-1132) and below 10 nM in experiment [1].

`N#CCC(CN1CCN(C(=O)c2ncc(F)cc2F)CC1)n1cc(-c2ncnc3[nH]ccc23)cn1` (stereo not shown) [Example 40, 3-(4-(7H-pyrrolo[2,3-d]pyrimidin-4-yl)-1H-pyrazol-1-yl)-4-(4-(3,5-difluoropicolinoyl)piperazin-1-yl)butanenitrile]: the half-maximal inhibitory concentration (IC50) at Jak2 (a.a. 828-1132) is 10 to 50 nM; in experiment [1], below 10 nM.

Turning to `N#CCC(CN1CCN(C(=O)c2cc(OC(F)(F)F)ccc2F)CC1)n1cc(-c2ncnc3[nH]ccc23)cn1` (stereo not shown) [Example 41, 3-(4-(7H-pyrrolo[2,3-d]pyrimidin-4-yl)-1H-pyrazol-1-yl)-4-(4-(2-fluoro-5-(trifluoromethoxy)benzoyl)piperazin-1-yl)butanenitrile], the IC50 is 10 to 50 nM on Jak2 (a.a. 828-1132) and below 10 nM in experiment [1].

The values above are taken from patent US9249145B2, “Heterocyclic derivatives of pyrazol-4-yl-pyrrolo[2,3-d]pyrimidines as janus kinase inhibitors” (Incyte Holdings Corporation, priority 2009, dated 2016).
